Reference: patent publication US12583859B2, “PRMT5 inhibitors and uses thereof” (California Institute of Technology, priority 2019, dated 2026)

Assays:
[1] = system: drug-resistant cell lines of Table 4; assay: Cell Line Growth Retardation Assay, average maximum effect in resistant cohort; format: cell-based, Human; conditions: average maximum growth inhibition over resistant cohort of Table 4; 6 days; up to 1 μM
Protocol: (§1) Cells were seeded at densities of 1,000-5,000 cells per well in 48-well tissue culture plates. After a 24 h rest period, cells were treated with compound at 1 μM, 0.2 μM, 0.04 μM, 0.008 μM, 0.0016 μM, and 0.00032 μM. A group of cells were treated with the vehicle in which the compound was prepared and served as a control. Prior to treatment, cells were counted and this count was used as a baseline for the calculation of growth inhibition. The cells were grown in the presence of compounds for 6 days and were counted on day 6. All cell counting was performed using a Synentec Cellavista plate imager. Growth inhibition was calculated as a ratio of cell population doublings in the presence of compound versus the absence of compound and expressed as the maximum percentage growth inhibition achieved across the range of tested concentrations of the compound (“maximum effect” or “ME”) calculated by fitting curves to data points from each dose-response assay using the Proc NLIN function in SAS for Windows version 9.2 (SAS Institute, Inc.).
(§2) Human cancer cell lines were grouped as “sensitive” or “resistant” to PRMT5 inhibition based on whether their growth was retarded by JNJ-64619178 (i.e., (1S,2R,3R,5R)-3-(2-(2-amino-3-bromoquinolin-7-yl)ethyl)-5-(4-amino-7H-pyrrolo[2,3-d]pyrimidin-7-yl)cyclopentane-1,2-diol) (data not shown; see Table 4). These sensitive and resistant cohorts were interrogated for response to each compound, and ME was calculated for each cell line using the same technique described above. Average MEs for the sensitive and resistant cohorts were calculated as arithmetic means of the group. “A” represents a percent of maximum effect of 60% or greater, “B” represents a percent of maximum effect of 30% to 59%, and “C” represents a percent of maximum effect of 29% or lower.

PRMT5 = target: T1, PRMT5 (Homo sapiens, UniProt O14744); assay: PRMT5 Enzymatic Inhibition Assay (chemiluminescence immunoassay of histone H4 methylation); format: biochemical; conditions: 1 hour at room temperature; 10 μM to 1 nM
T1 construct: purchased BPS Biosciences 52002L
T1 sequence (O14744 2-637 limits assumed): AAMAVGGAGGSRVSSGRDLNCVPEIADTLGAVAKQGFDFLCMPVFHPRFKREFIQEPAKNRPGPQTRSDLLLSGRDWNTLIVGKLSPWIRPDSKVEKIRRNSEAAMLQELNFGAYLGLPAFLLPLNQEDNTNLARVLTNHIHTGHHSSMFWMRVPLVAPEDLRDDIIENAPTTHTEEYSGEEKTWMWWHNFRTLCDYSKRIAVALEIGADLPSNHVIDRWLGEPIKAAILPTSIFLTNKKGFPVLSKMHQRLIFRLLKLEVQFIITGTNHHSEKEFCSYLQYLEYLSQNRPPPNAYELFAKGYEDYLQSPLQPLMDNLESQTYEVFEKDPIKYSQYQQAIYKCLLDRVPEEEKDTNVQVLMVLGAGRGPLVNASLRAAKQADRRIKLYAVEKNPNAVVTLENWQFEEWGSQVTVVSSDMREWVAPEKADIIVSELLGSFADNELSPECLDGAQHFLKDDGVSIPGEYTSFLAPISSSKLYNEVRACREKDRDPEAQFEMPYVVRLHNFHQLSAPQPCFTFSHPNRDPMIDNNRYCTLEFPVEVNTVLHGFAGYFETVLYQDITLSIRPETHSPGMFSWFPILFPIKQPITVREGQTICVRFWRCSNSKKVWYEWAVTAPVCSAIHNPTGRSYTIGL
T1 sequence (Q9BQA1 2-342 partner limits assumed): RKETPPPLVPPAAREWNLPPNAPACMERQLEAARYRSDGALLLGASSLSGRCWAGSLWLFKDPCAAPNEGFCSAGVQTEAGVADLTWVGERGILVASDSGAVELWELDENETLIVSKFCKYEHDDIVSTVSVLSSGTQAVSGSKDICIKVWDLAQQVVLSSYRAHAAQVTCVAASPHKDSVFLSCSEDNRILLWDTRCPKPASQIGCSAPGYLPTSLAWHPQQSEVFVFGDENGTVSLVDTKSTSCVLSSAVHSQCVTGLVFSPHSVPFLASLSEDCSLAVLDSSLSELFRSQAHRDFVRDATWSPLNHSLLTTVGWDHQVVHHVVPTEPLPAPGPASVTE
Protocol: A chemiluminescence immunoassay (CLIA) measuring the amount of PRMT5-mediated histone methylation was performed in a 96-well plate format according to the manufacturer's protocol (BPS Biosciences, Cat #52002L). A 96-well plate precoated with histone H4 peptide was rehydrated prior to use. A master mix containing PRMT5 substrate S-adenosylmethionine, reaction buffer, and purified PRMT5 enzyme was added to create reaction-competent wells. Wells lacking either S-adenosylmethionine substrate or PRMT5 enzyme were created as negative controls. 10 test concentrations, ranging from 100 μM to 10 nM, of the test compound were prepared using a 1:3 serial dilution in dH2O. 5 μL of each test concentration was added into a reaction-competent well. 5 μL of a 1% DMSO aqueous solution lacking inhibitor was added into negative control wells and into a reaction-competent well, creating a positive control well. The final reaction volume in each well was 50 μL, and the final concentration of the test compound in each well ranged from 10 μM to 1 nM. A known inhibitor of PRMT5, EPZ015666, was tested in parallel reaction wells as an assay validation control. The 96-well plate was incubated for 1 hour at room temperature.
Upon completion of the incubation, the reaction supernatant in each well was discarded. Wells were washed with 1×TBST and incubated in blocking buffer for 1 hour. The wells were incubated with a primary antibody recognizing methylated Arg3 residues on Histone H4 for 1 hour. The wells were washed with 1×TBST again and subsequently incubated with an HRP-conjugated secondary antibody for 30 minutes. The wells were washed again with 1×TBST, and equal parts of the chemiluminescence reagents were added into each well. Quantification of luminescence was measured in a plate reader.
Luminescence values were normalized against the positive and negative controls to convert the data into % PRMT5 activity. An inhibitor concentration-dependent curve was plotted against % PRMT5 activity and am IC50 value was determined for each compound.

[2] = system: drug-sensitive cell lines of Table 4; assay: Cell Line Growth Retardation Assay, average maximum effect in sensitive cohort; format: cell-based, Human; conditions: average maximum growth inhibition over sensitive cohort of Table 4; 6 days; up to 1 μM
Protocol: as §1, §2

[3] = Measurement of Compound Metabolic Stability in hepatocytes; format: in vitro ADME; conditions: mouse hepatocytes; for hepatocyte CLint at 1 μM: read-out: CLint (μL/min/10^6)
Protocol: The metabolic stability of compounds was determined in hepatocytes from human, mice and rats. Compounds were diluted to 5 μM in Williams' Medium E from 10 mM stock solutions. 10 μL of each compound was aliquoted into a well of a 96-well plate and reactions were started by aliquoting 40 μL of a 625,000 cells/mL suspension into each well. The plate was incubated at 37° C. with 5% CO2. At each corresponding time point, the reaction was stopped by quenching with ACN containing internal standards (IS) at a 1:3. Plates were shaken at 500 rpm for 10 min, and then centrifuged at 3,220×g for 20 minutes. Supernatants were transferred to another 96-well plate containing a dilution solution. Supernatants were analyzed by LC/MS/MS. The Half-lives (in minutes) and CLint values (in μL/min/10^6 cells) of example compounds, as measured in mouse hepatocytes, are presented in Table 3. […] For CLint, “A” represents greater than 100 μL/min/10^6 cells, “B” represents 50 to 100 μL/min/10^6 cells, and “C” represents less than 50 μL/min/10^6 cells.
The remaining percent of compound after incubation was calculated using the following equation: % Remaining Compound=Peak Area Ratios of Tested Compound vs. Internal Standard at End Point • Peak Area Ratios of Tested Compound vs. Internal Standard at Start Point Compound half-life and CLint were calculated using the following equations: Ct=C0*e^−k*t(first order kinetics); when […], t1/2=ln 2/k=0.693/k; and CLint=k/(1,000,000 cells/mL) Activity-Guided Selection of Inhibitors

Row | IC50 (PRMT5) [nM] | half-life at 1 μM [3] [min] | hepatocyte CLint at 1 μM [3] [µL/min/1e6 cells] | SMILES | AvgRes ME (%) [1] | AvgSens ME (%) [2]
1 | ≤ 100 |  |  | CC(C)Nc1ncnc2c1ccn2[C@@H]1C[C@@]2(CO[C@@H](c3ccc4cc(Br)c(N)nc4c3)C2)[C@@H](O)[C@H]1O [Compound 25] | C (a percent of maximum effect of 29% or lower) | B (a percent of maximum effect of 30% to 59%)
2 | ≤ 100 | < 15 | > 100 | Nc1ccc2ccc([C@H]3C[C@@]4(CO3)C[C@@H](n3ccc5cncnc53)[C@H](O)[C@@H]4O)cc2n1 [Compound 21] | B (a percent of maximum effect of 30% to 59%) | A (a percent of maximum effect of 60% or greater)
3 | 101 to 500 |  |  | Nc1ncnc2c1ccn2[C@@H]1C[C@@]2(CNC(c3ccc4cc(Br)c(Cl)nc4c3)C2)[C@@H](O)[C@H]1O (single isomer, unassigned) [Compound 4] | C (a percent of maximum effect of 29% or lower) | C (a percent of maximum effect of 29% or lower)
4 | > 500 |  |  | CN1C[C@]2(CC1c1ccc3cc(Br)c(N)nc3c1)C[C@@H](n1ccc3c(N)ncnc31)[C@H](O)[C@@H]2O (single isomer, unassigned) [Compound 6] | C (a percent of maximum effect of 29% or lower) | C (a percent of maximum effect of 29% or lower)
5 | ≤ 100 |  |  | Nc1nc2cc(C3C[C@@]4(CN3)C[C@@H](n3ccc5c(N)ncnc53)[C@H](O)[C@@H]4O)ccc2cc1Br (single isomer, unassigned) [Compound 7] | B (a percent of maximum effect of 30% to 59%) | A (a percent of maximum effect of 60% or greater)
6 | ≤ 100 |  |  | Nc1nc2cc(C3C[C@@]4(CO3)C[C@@H](n3ccc5c(Cl)ncnc53)[C@H](O)[C@@H]4O)ccc2cc1Br (stereo partly shown) [Compound 18] | C (a percent of maximum effect of 29% or lower) | C (a percent of maximum effect of 29% or lower)
7 | ≤ 100 | < 15 | > 100 | Nc1ccc2ccc([C@H]3C[C@@]4(CO3)C[C@@H](n3ccc5c(Cl)ncnc53)[C@H](O)[C@@H]4O)cc2n1 [Compound 20] | B (a percent of maximum effect of 30% to 59%) | A (a percent of maximum effect of 60% or greater)
8 | > 500 |  |  | O[C@H]1[C@H](n2ccc3c(Cl)ncnc32)C[C@@]2(CNC(c3ccc4cc(Br)c(Cl)nc4c3)C2)[C@H]1O (single isomer, unassigned) [Compound 2] | C (a percent of maximum effect of 29% or lower) | C (a percent of maximum effect of 29% or lower)
9 | ≤ 100 |  |  | Nc1nc2cc(C3C[C@@]4(CO3)C[C@@H](n3ccc5c(N)ncnc53)[C@H](O)[C@@H]4O)ccc2cc1Br (single isomer, unassigned) [Compound 16] | B (a percent of maximum effect of 30% to 59%) | A (a percent of maximum effect of 60% or greater)
10 | > 500 |  |  | Nc1ncnc2c1ccn2[C@@H]1C[C@@]2(CNC(c3ccc4cc(Br)c(Cl)nc4c3)C2)[C@@H](O)[C@H]1O (single isomer, unassigned) [Compound 3] | C (a percent of maximum effect of 29% or lower) | C (a percent of maximum effect of 29% or lower)
11 | 101 to 500 |  |  | Nc1nc2cc(C3C[C@@]4(CN3)C[C@@H](n3ccc5c(Cl)ncnc53)[C@H](O)[C@@H]4O)ccc2cc1Br (single isomer, unassigned) [Compound 10] | C (a percent of maximum effect of 29% or lower) | C (a percent of maximum effect of 29% or lower)
12 | 101 to 500 |  |  | CN1C[C@]2(CC1c1ccc3cc(Br)c(N)nc3c1)C[C@@H](n1ccc3c(N)ncnc31)[C@H](O)[C@@H]2O (single isomer, unassigned) [Compound 5] | C (a percent of maximum effect of 29% or lower) | C (a percent of maximum effect of 29% or lower)
13 | > 500 |  |  | O[C@H]1[C@H](n2ccc3c(Cl)ncnc32)C[C@@]2(CNC(c3ccc4cc(Br)c(Cl)nc4c3)C2)[C@H]1O (single isomer, unassigned) [Compound 1] | C (a percent of maximum effect of 29% or lower) | C (a percent of maximum effect of 29% or lower)
14 | ≤ 100 |  |  | CCCNc1ncnc2c1ccn2[C@@H]1C[C@@]2(CO[C@@H](c3ccc4cc(Br)c(N)nc4c3)C2)[C@@H](O)[C@H]1O [Compound 26] | B (a percent of maximum effect of 30% to 59%) | B (a percent of maximum effect of 30% to 59%)
